From article PMC4704863 (Angewandte Chemie (International ed. in English), 2014)
Ends that are not written are not given here. Peptide text beside a SMILES is read from it. * marks the point of attachment. Palmitoyl = CCCCCCCCCCCCCCCC(=O)*

Assays:
hY4R [1] = target: T1, hY4R (Homo sapiens, UniProt P50391); assay type: cell-based; conditions: Col-24 epithelial layers, response to 10 nM hPP after prestimulation
Col-24 epithelial layers = assay: Antisecretory responses; assay type: cell-based, human
hY4R [2] = target: T1, hY4R; assay: Arr3–receptor interaction by BRET; assay type: cell-based; conditions: arr3 association after 10 min
[3] = target: human neuropeptide Y receptor Y4 (hY4R) (human) (UniProt P50391); assay: radioligand binding
[4] = target: human neuropeptide Y receptor Y4 (hY4R) (human, UniProt P50391 1-375); assay: radioligand binding
[5] = Col-24 epithelial layers, 100 nM peptide

human neuropeptide Y receptor Y4 (hY4R) (human), sequence (P50391 whole entry): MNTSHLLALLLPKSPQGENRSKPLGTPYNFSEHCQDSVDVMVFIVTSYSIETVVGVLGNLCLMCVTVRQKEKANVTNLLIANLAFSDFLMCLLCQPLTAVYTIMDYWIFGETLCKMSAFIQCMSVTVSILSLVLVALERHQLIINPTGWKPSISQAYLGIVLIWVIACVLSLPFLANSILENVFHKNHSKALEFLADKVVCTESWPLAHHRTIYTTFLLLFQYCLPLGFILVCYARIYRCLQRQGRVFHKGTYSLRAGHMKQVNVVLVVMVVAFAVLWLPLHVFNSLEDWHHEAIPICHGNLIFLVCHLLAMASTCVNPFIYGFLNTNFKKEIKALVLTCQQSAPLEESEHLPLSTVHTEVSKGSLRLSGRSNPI
T1 sequence (P50391 whole entry): as above
human neuropeptide Y receptor Y4 (hY4R), sequence (P50391 whole entry): as above

Molecule | Desensitization of hY4R after prestimulation (hY4R [1]) | Isc response, time course (Col-24 epithelial layers; [5]) | arr3 recruitment, maximal netBRET (BRETmax) (hY4R [2]) | IC50 [3] | further results
CCCCCCCCCCCCCCCC(=O)NCCCC[C@H](NC(=O)[C@H](C)NC(=O)[C@H](Cc1ccc(O)cc1)NC(=O)[C@H](CCC(N)=O)NC(=O)[C@H](C)NC(=O)[C@H](CCSC)NC(=O)[C@H](CCC(N)=O)NC(=O)[C@H](CCC(=O)O)NC(=O)[C@@H]1CCCN1C(=O)[C@@H](NC(=O)[C@H](C)NC(=O)[C@H](CC(N)=O)NC(=O)[C@H](CC(=O)O)NC(=O)CNC(=O)[C@@H]1CCCN1C(=O)[C@H](Cc1ccc(O)cc1)NC(=O)[C@@H](NC(=O)[C@@H]1CCCN1C(=O)[C@H](CCC(=O)O)NC(=O)[C@H](CC(C)C)NC(=O)[C@@H]1CCCN1C(=O)[C@H](C)N)C(C)C)[C@@H](C)O)C(=O)N[C@@H](CC(=O)O)C(=O)N[C@@H](CC(C)C)C(=O)N[C@@H](CCCNC(=N)N)C(=O)N[C@@H](CCCNC(=N)N)C(=O)N[C@@H](Cc1ccc(O)cc1)C(=O)N[C@H](C(=O)N[C@@H](CC(N)=O)C(=O)N[C@@H](CCSC)C(=O)N[C@@H](CC(C)C)C(=O)N[C@H](C(=O)N[C@@H](CCCNC(=N)N)C(=O)N[C@@H](CCC(N)=O)C(=O)N[C@@H](CCCNC(=N)N)C(=O)N[C@@H](Cc1ccc(O)cc1)C(N)=O)[C@@H](C)O)[C@@H](C)CC [3A] (H-APLEPVYPGDNATPEQMAQYAK(Palmitoyl)DLRRYINMLTRQRY-NH2; N-terminus and C-terminus assumed) | concentration-dependent desensitization | prolonged reductions in Isc | increased arr3 recruitment | – | Concentration–response in Col-24 cells (potency and efficacy) (Col-24 epithelial layers; Col-24 cells, Isc): good activity and increased efficacy; Onset of Isc response (Col-24 epithelial layers; [5]): delayed; Maximum of Isc response (Col-24 epithelial layers; Col-24 epithelial layers, 100 nM peptide, compared with 2A): higher maximum than the parental peptide
APLEPVYPGDNATPEQMAQYAKDLRRYINMLTRQRY-NH2 [2A] | concentration-dependent desensitization | rapid and transient activity | robust arr3 recruitment | – | Time of maximum Isc effect (Col-24 epithelial layers; [5]): about 5 min
PEG22-modified [K^22,Q^34]hPP (5A) (peptide) | – | – | – | 94.2 nM | –
PEG5-modified [K^22,Q^34]hPP (4A) (peptide) | – | – | – | 36.8 nM | –
palmitoylated [K^22,Q^34]hPP (3A) (peptide) | – | – | – | 1.2 nM | –
APLEPVYPGDNATPEQMAQYAKDLRRYINMLTRQRY (ends and bridges not checked) [lead peptide 2A ([Q^34]hPP core sequence, Obinepitide)] | – | – | – | – | IC50 [4]: 0.5 nM
